# Assay results reported in the supplement of paper PMC10307832.
# Assays:
# Test in all cases: relative viability (nuclei count vs DMSO), 5 days (fraction); higher = more cells survive
# [1] = compound: COc1cc(Nc2ncc(F)c(Nc3ccc4c(n3)NC(=O)C(C)(C)O4)n2)cc(OC)c1OC [R406] + CC(=O)Nc1cccc(-n2c(=O)n(C3CC3)c(=O)c3c(Nc4ccc(I)cc4F)n(C)c(=O)c(C)c32)c1 [Trametinib] (partner 0.02 µM)
# How it was run: (§1)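 One day after seeding in 1536-well plates, lung cancer cell lines were dosed by pin tool. Dosing was either single-drug or a fixed anchor-drug dose plus five library-drug doses (not always all listed) in √10 steps. After 5 days, nuclei were stained in one fix-and-stain step and counted on 4× images, and relative viability is the nuclei count of treated wells over that of vehicle wells, given as the median of duplicate plates.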
# [2] = compound: COc1cc(Nc2ncc(F)c(Nc3ccc4c(n3)NC(=O)C(C)(C)O4)n2)cc(OC)c1OC [R406] + NC(=O)Nc1cc(-c2cccc(F)c2)sc1C(=O)N[C@H]1CCCNC1 [AZD7762] (partner 0.2 µM)
# How it was run: as §1
# [3] = compound: O=C(/C=C/c1cccnc1)NCCCCC1CCN(C(=O)c2ccccc2)CC1 [Daporinad] + N=C(N)NC(=N)NCCc1ccccc1 [Phenformin] (partner 250 µM)
# How it was run: as §1
# [4] = compound: COc1cc(Nc2ncc(F)c(Nc3ccc4c(n3)NC(=O)C(C)(C)O4)n2)cc(OC)c1OC [R406] + CS(=O)(=O)N1CCN(Cc2cc3nc(-c4cccc5[nH]ncc45)nc(N4CCOCC4)c3s2)CC1 [Pictilisib] (partner 1 µM)
# How it was run: as §1
Cell Line,relative viability ([1]; first compound 0.08 µM),relative viability ([1]; first compound 0.253 µM),relative viability ([1]; first compound 0.8 µM),relative viability ([1]; first compound 2.53 µM),relative viability ([1]; first compound 8 µM),relative viability ([2]; first compound 0.08 µM),relative viability ([2]; first compound 0.253 µM),relative viability ([2]; first compound 0.8 µM),relative viability ([2]; first compound 2.53 µM),relative viability ([2]; first compound 8 µM),relative viability ([3]; first compound 0.0005 µM),relative viability ([3]; first compound 0.001581 µM),relative viability ([3]; first compound 0.005 µM),relative viability ([3]; first compound 0.01581 µM),relative viability ([4]; first compound 0.08 µM),relative viability ([4]; first compound 0.253 µM),relative viability ([4]; first compound 0.8 µM),relative viability ([4]; first compound 2.53 µM),relative viability ([4]; first compound 8 µM)
EMC-BAC-2,0.907,0.956,0.804,1.06,0.917,1.05,1.26,1.17,1.04,0.391,0.57,0.631,0.417,0.298,0.566,0.58,0.585,0.502,0.323
NCI-H1993,0.442,0.542,0.518,0.679,0.573,0.741,1.1,0.727,0.719,0.537,0.536,0.553,0.535,0.578,0.769,0.814,0.862,0.604,0.928
NCI-H596,0.814,0.909,0.775,0.72,0.196,1.08,1.1,0.977,0.825,0.836,0.627,0.749,0.774,0.746,0.368,0.362,0.392,0.316,0.252
NCI-H650,0.949,1.06,1,0.818,0.819,0.822,1.16,1.02,0.593,0.788,0.45,0.422,0.522,0.507,0.89,1.04,0.993,0.613,0.604
NCI-H1792,0.428,0.443,0.427,0.178,0.0999,0.75,0.615,0.908,0.283,0.378,–,0.582,0.222,0.68,0.264,0.193,0.302,0.161,0.164
ChaGo-K-1,0.853,0.962,0.982,0.844,0.763,0.799,0.957,0.999,0.873,0.744,0.513,0.532,0.434,0.274,0.719,0.917,0.791,0.584,0.391
LOU-NH91,0.804,0.8,0.759,0.621,0.549,0.718,0.769,0.706,0.574,0.473,0.645,0.727,0.798,1.02,0.524,0.526,0.46,0.405,0.414
NCI-H2405,0.584,0.699,0.615,0.447,0.299,0.715,0.869,0.85,0.692,0.244,0.43,0.459,0.484,0.366,0.514,0.475,0.396,0.265,0.175
LCLC-97TM1,0.218,0.23,0.226,0.174,0.194,0.207,0.313,0.327,0.164,0.219,0.414,0.454,0.485,0.458,0.174,0.172,0.218,0.133,0.148
